Assay results reported in publication PMC3155278 (ACS Medicinal Chemistry Letters, 2011).

Test system: REH cells
Assay: Chemotaxis
Format: cell-based
Details: 3 h migration

In the case of SDF-1α, the “Lowest concentration inducing migration” value is reported as 10 pM and the “Concentration at peak of induced migration (chemotaxis peak)” value (bell-shaped dose-response) is reported as 1 nM.
